Our source for the Antibacterial Activity (MIC's) values is patent EP1206476B1, “9A-AZALIDES WITH ANTIBACTERIAL ACTIVITY” (ABBOTT LABORATORIES, priority 1999, dated 2001).

The structures appear in SMILES notation.

Holding throughout (test): In vitro assay of antibacterial activity (agar dilution MIC)
Common to all, as to assay type: cell-based

In test [1] the test system is Streptococcus agalactiae CMX 508. The following applies: code KK = Streptococcus agalactiae CMX 508; BHI agar, 35-37 °C, 20 to 24 hours; unit assumed. Here is the method:
(§1) Representative compounds of the present invention were assayed in vitro for antibacterial activity as follows: Twelve petri dishes containing successive aqueous dilutions of the test compound mixed with 10 mL of sterilized Brain Heart Infusion (BHI) agar (Difco 0418-01-5) were prepared. Each plate was inoculated with 1:100 (or 1:10 for slow-growing strains, such as Micrococcus and Streptococcus) dilutions of up to 32 different microorganisms, using a Steers replicator block. The inoculated plates were incubated at 35-37 °C for 20 to 24 hours. In addition, a control plate, using BHI agar containing no test compound, was prepared and incubated at the beginning and end of each test.
(§2) An additional plate containing a compound having known susceptibility patterns for the organisms being tested and belonging to the same antibiotic class as the test compound was also prepared and incubated as a further control, as well as to provide test-to-test comparability. Erythromycin A was used for this purpose.
(§3) After incubation, each plate was visually inspected. The minimum inhibitory concentration (MIC) was defined as the lowest concentration of drug yielding no growth, a slight haze, or sparsely isolated colonies on the inoculum spot as compared to the growth control.

The test system of test [2] is Staphylococcus aureus NCTC 10649M. The following applies: code EE = Staphylococcus aureus NCTC 10649M; BHI agar, 35-37 °C, 20 to 24 hours; unit assumed. Here is the method:
as §1, §2, §3

The test system of a further test is Escherichiacoli SS. The following applies: code RR = Escherichiacoli SS; BHI agar, 35-37 °C, 20 to 24 hours; unit assumed. Here is the method: as §1, §2, §3
A further test relates to Candida albicans CCH 442. The following applies: code TT = Candida albicans CCH 442; BHI agar, 35-37 °C, 20 to 24 hours; unit assumed. The method, then: as §1, §2, §3
Test [3] concerns Mycobacterium smegmatis ATCC 114. The following applies: code UU = Mycobacterium smegmatis ATCC 114; BHI agar, 35-37 °C, 20 to 24 hours; unit assumed. The method, then:
as §1, §2, §3

The subject of test [4] is Staphylococcus aureus A-5177. The following applies: code BB = Staphylococcus aureus A-5177; BHI agar, 35-37 °C, 20 to 24 hours; unit assumed. Here is the method: as §1, §2, §3
For test [5], the system named is Staphylococcus aureus 1775. The following applies: code GG = Staphylococcus aureus 1775; BHI agar, 35-37 °C, 20 to 24 hours; unit assumed. Here is the method: as §1, §2, §3
For test [6], the system named is Streptococcus pyogenes PIU 2548. The following applies: code NN = Streptococcus pyogenes PIU 2548; BHI agar, 35-37 °C, 20 to 24 hours; unit assumed. Here is the method: as §1, §2, §3
Test [7] deals with Streptococcus bovis A-5169. The following applies: code JJ = Streptococcus bovis A-5169; BHI agar, 35-37 °C, 20 to 24 hours; unit assumed. Here is the method:
as §1, §2, §3

Test [8] has as its system Nocardia Asteroides ATCC 99700. The following applies: code VV = Nocardia Asteroides ATCC 99700; BHI agar, 35-37 °C, 20 to 24 hours; unit assumed. The method, then:
as §1, §2, §3

The test system of test [9] is Streptococcus Pneumonia ATCC 6303. The following applies: code XX = Streptococcus Pneumonia ATCC 6303; BHI agar, 35-37 °C, 20 to 24 hours; unit assumed. Here is the method:
as §1, §2, §3

Test [10] relates to Staphylococcus aureus A-5278. The following applies: code CC = Staphylococcus aureus A-5278; BHI agar, 35-37 °C, 20 to 24 hours; unit assumed. Here is the method:
as §1, §2, §3

Test [11] deals with Haemophilislnfluenzae DILL AMP R. The following applies: code WW = Haemophilislnfluenzae DILL AMP R; BHI agar, 35-37 °C, 20 to 24 hours; unit assumed. The method, then: as §1, §2, §3
The test system of test [12] is Streptococcus pyogenes 930. The following applies: code MM = Streptococcus pyogenes 930; BHI agar, 35-37 °C, 20 to 24 hours; unit assumed. Here is the method: as §1, §2, §3
In test [13] the test system is Staphylococcus epidermidis 3519. The following applies: code HH = Staphylococcus epidermidis 3519; BHI agar, 35-37 °C, 20 to 24 hours; unit assumed. Here is the method: as §1, §2, §3
The subject of test [14] is Streptococcus Pneumonia 5649. The following applies: code ZA = Streptococcus Pneumonia 5649; BHI agar, 35-37 °C, 20 to 24 hours; unit assumed. The method, then: as §1, §2, §3
Test [15] concerns Staphylococcus aureus ATCC 6538P. The following applies: code AA = Staphylococcus aureus ATCC 6538P; BHI agar, 35-37 °C, 20 to 24 hours; unit assumed. Here is the method:
as §1, §2, §3

The test system of test [16] is Streptococcus pyogenes EES61. The following applies: code LL = Streptococcus pyogenes EES61; BHI agar, 35-37 °C, 20 to 24 hours; unit assumed. Here is the method:
as §1, §2, §3

Test [17] has as its system Streptococcus Pneumonia GYR 1171. The following applies: code YY = Streptococcus Pneumonia GYR 1171; BHI agar, 35-37 °C, 20 to 24 hours; unit assumed. The method, then:
as §1, §2, §3

The test system of a further test is Escherichiacoli JUHL. The following applies: code QQ = Escherichiacoli JUHL; BHI agar, 35-37 °C, 20 to 24 hours; unit assumed. Here is the method:
as §1, §2, §3

Test [18] deals with Micrococcusluteus ATCC 4698. The following applies: code PP = Micrococcusluteus ATCC 4698; BHI agar, 35-37 °C, 20 to 24 hours; unit assumed. The method, then: as §1, §2, §3
Test [19] deals with Streptococcus Pneumonia 5979. The following applies: code ZZ = Streptococcus Pneumonia 5979; BHI agar, 35-37 °C, 20 to 24 hours; unit assumed. The method, then:
as §1
An additional plate containing a compound having known susceptibility patterns for the organisms being tested and belonging to the same antibiotic class as the test compound was also prepared and incubated as a further control, as well as to provide test-to-test comparability.
as §3

Consider `CC[C@H]1OC(=O)[C@H](C)[C@@H](O[C@H]2C[C@@](C)(OC)[C@@H](O)[C@H](C)O2)[C@H](C)[C@@H](O[C@@H]2O[C@H](C)C[C@H](N(C)C)[C@H]2O)[C@](C)(O)C[C@@H](C)C(=O)[C@H](C)[C@@H](O)[C@]1(C)O` [Ery. A standard, Erythromycin A, reference compound], for which the Antibacterial Activity (MIC's) in test [1] was 0.05 µg/mL; in test [2], 0.39 µg/mL; in the test with Escherichiacoli SS, 0.78 µg/mL; in the test with Candida albicans CCH 442, > 100 µg/mL; in [3], 3.1 µg/mL; in test [4], 3.1 µg/mL. Also, the Antibacterial Activity (MIC's) was > 100 µg/mL in test [5]; 6.2 µg/mL in test [6]; 0.02 µg/mL in test [7]; 0.1 µg/mL in [8]; 0.06 µg/mL in test [9]; > 100 µg/mL in test [10]. Further, the Antibacterial Activity (MIC's) is 4 µg/mL in test [11]; > 100 µg/mL in [12]; 0.39 µg/mL in test [13]; 16 µg/mL in test [14]; 0.2 µg/mL in test [15]; 0.05 µg/mL in test [16]. In addition, the Antibacterial Activity (MIC's) in test [17] is 0.06 µg/mL; with Escherichiacoli JUHL, > 100 µg/mL; in test [18], 0.2 µg/mL.

For `C=CCO[C@]1(C)C[C@@H](C)CN[C@H](C)[C@@H](O)[C@](C)(O)[C@@H](CC)OC(=O)[C@H](C)[C@@H](O[C@H]2C[C@@](C)(OC)[C@@H](O)[C@H](C)O2)[C@H](C)[C@H]1O[C@@H]1O[C@H](C)C[C@H](N(C)C)[C@H]1O` [Example 2], the Antibacterial Activity (MIC's) in test [1] is 0.05 µg/mL; in test [2], 0.39 µg/mL; in the test on Escherichiacoli SS, 0.78 µg/mL; with Candida albicans CCH 442 it was > 100 µg/mL; in test [3], 6.2 µg/mL; in test [4], 12.5 µg/mL. The Antibacterial Activity (MIC's) in test [5] is > 100 µg/mL; in test [6], 6.2 µg/mL; in [7], 0.02 µg/mL; in test [8] it was 0.1 µg/mL; in test [9], 0.06 µg/mL; in test [10], > 100 µg/mL. For the same compound, the Antibacterial Activity (MIC's) is 8 µg/mL in [11]; > 100 µg/mL in [12]; 0.2 µg/mL in test [13]; 16 µg/mL in [14]; 0.2 µg/mL in test [15]; 0.05 µg/mL in test [16]. For the same compound, the Antibacterial Activity (MIC's) in test [17] was 0.06 µg/mL; in the test on Escherichiacoli JUHL it was 50 µg/mL; in test [18], 0.39 µg/mL; in [19] it was > 128 µg/mL.
